# Data from ChEMBL document CHEMBL1201861, “Genomics of Drug Sensitity in Cancer screening data, Wellcome Trust Sanger Institute”.
# Assays:
# Assay in all cases: cells
# Type in all cases: functional, cell-based
# Conditions in all cases: Homo sapiens
# COLO-678 = test system: COLO-678
# Description: SANGER: Inhibition of human COLO-678 cell growth in a cell viability assay.
# CHL-1 = test system: CHL-1;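 note: cell growth inhibition, read out with a cell viability assay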
# Description: SANGER: Inhibition of human CHL-1 cell growth in a cell viability assay.
# HGC-27 = test system: HGC-27;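 note: growth inhibition of human HGC-27 cells, read out in a cell viability assay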
# Description: SANGER: Inhibition of human HGC-27 cell growth in a cell viability assay.
# WM-115 = test system: WM-115
# Description: SANGER: Inhibition of human WM-115 cell growth in a cell viability assay.
# HOS = test system: HOS;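 note: growth inhibition of human HOS cells, read out with a cell viability assay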
# Description: SANGER: Inhibition of human HOS cell growth in a cell viability assay.
# DU-145 = test system: DU-145
# Description: SANGER: Inhibition of human DU-145 cell growth in a cell viability assay.
# SK-MEL-24 = test system: SK-MEL-24;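 note: growth inhibition read out by a cell viability assay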
# Description: SANGER: Inhibition of human SK-MEL-24 cell growth in a cell viability assay.
# SW1088 = test system: SW1088;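 note: growth inhibition of human SW1088 cells, read out by a cell viability assay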
# Description: SANGER: Inhibition of human SW1088 cell growth in a cell viability assay.
# UMUC3 = test system: UMUC3;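 note: growth inhibition of human UM-UC-3 cells, read out with a cell viability assay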
# Description: SANGER: Inhibition of human UM-UC-3 cell growth in a cell viability assay.
# AN3-CA = test system: AN3-CA;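 note: growth inhibition of human AN3-CA cells measured by a cell viability assay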
# Description: SANGER: Inhibition of human AN3-CA cell growth in a cell viability assay.
# NCI-H727 = test system: NCI-H727;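 note: growth inhibition of human NCI-H727 cells, read out with a cell viability assay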
# Description: SANGER: Inhibition of human NCI-H727 cell growth in a cell viability assay.
# AGS = test system: AGS;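 note: growth inhibition of AGS cells, determined with a cell viability assay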
# Description: SANGER: Inhibition of human AGS cell growth in a cell viability assay.
# TCC-SUP = test system: TCC-SUP;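 note: growth inhibition of TCC-SUP cells, read out with a cell viability assay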
# Description: SANGER: Inhibition of human TCCSUP cell growth in a cell viability assay.
# HCC38 = test system: HCC38;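 note: cell viability assay on the human HCC38 cell line, with IC50 marking the concentration that inhibits cell growth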
# Description: SANGER: Inhibition of human HCC38 cell growth in a cell viability assay.
# SF-295 = test system: SF-295;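 note: growth inhibition of SF-295 cells, read out with a cell viability assay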
# Description: SANGER: Inhibition of human SF295 cell growth in a cell viability assay.
# HOP-92 = test system: HOP-92;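 note: cell viability readout, with IC50 reflecting inhibition of HOP-92 cell growth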
# Description: SANGER: Inhibition of human HOP-92 cell growth in a cell viability assay.
# HuO9 = test system: HuO9;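 note: growth inhibition of HuO9 cells, read out with a cell viability assay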
# Description: SANGER: Inhibition of human HuO9 cell growth in a cell viability assay.
# SiHa = test system: SiHa;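 note: Viability-based readout of growth inhibition in SiHa cells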
# Description: SANGER: Inhibition of human SiHa cell growth in a cell viability assay.
# HSC-3 = test system: HSC-3
# Description: SANGER: Inhibition of human HSC-3 cell growth in a cell viability assay.
# UACC-62 = test system: UACC-62;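 note: growth inhibition of human UACC-62 cells, read out by a cell viability assay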
# Description: SANGER: Inhibition of human UACC-62 cell growth in a cell viability assay.
# SK-MEL-28 = test system: SK-MEL-28;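 note: growth inhibition of human SK-MEL-28 cells, read out with a cell viability assay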
# Description: SANGER: Inhibition of human SK-MEL-28 cell growth in a cell viability assay.
# NCI-H1623 = test system: NCI-H1623;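 note: cell viability assay used as the read-out for growth inhibition of NCI-H1623 cells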
# Description: SANGER: Inhibition of human NCI-H1623 cell growth in a cell viability assay.
# CAMA-1 = test system: CAMA-1;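 note: growth inhibition of CAMA-1 cells, read out with a cell viability assay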
# Description: SANGER: Inhibition of human CAMA-1 cell growth in a cell viability assay.
# OE19 = test system: OE19;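 note: growth inhibition of OE19 cells, measured through a cell viability read-out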
# Description: SANGER: Inhibition of human OE19 cell growth in a cell viability assay.
# MDA-MB-415 = test system: MDA-MB-415
# NY = test system: NY
# Description: SANGER: Inhibition of human NY cell growth in a cell viability assay.
# SNU-423 = test system: SNU-423
# Description: SANGER: Inhibition of human SNU-423 cell growth in a cell viability assay.
# BHY = test system: BHY;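 note: cell growth inhibition read out by a viability assay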
# Description: SANGER: Inhibition of human BHY cell growth in a cell viability assay.
# NCI-H2122 = test system: NCI-H2122;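 note: growth inhibition of the cells, read out with a cell viability assay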
# Description: SANGER: Inhibition of human NCI-H2122 cell growth in a cell viability assay.
# SK-MEL-30 = test system: SK-MEL-30;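 note: growth inhibition of SK-MEL-30 cells, determined with a cell viability assay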
# Description: SANGER: Inhibition of human SK-MEL-30 cell growth in a cell viability assay.
# H4 = test system: H4
# Description: SANGER: Inhibition of human H4 cell growth in a cell viability assay.
# SW948 = test system: SW948;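 note: growth inhibition of SW948 cells, read out with a cell viability assay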
# Description: SANGER: Inhibition of human SW948 cell growth in a cell viability assay.
# SK-N-AS = test system: SK-N-AS;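 note: growth inhibition of human SK-N-AS cells, measured with a cell viability assay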
# Description: SANGER: Inhibition of human SK-N-AS cell growth in a cell viability assay.
# NB12 = test system: NB12;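 note: growth inhibition of human NB12 cells, read out by a cell viability assay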
# Description: SANGER: Inhibition of human NB12 cell growth in a cell viability assay.
# ABC-1 = test system: ABC-1;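 note: growth inhibition of human ABC-1 cells, read out by a cell viability assay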
# Description: SANGER: Inhibition of human ABC-1 cell growth in a cell viability assay.
# CAL-54 = test system: CAL-54;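 note: growth inhibition of CAL-54 cells, read out by a viability measurement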
# Description: SANGER: Inhibition of human CAL-54 cell growth in a cell viability assay.
# CAL-72 = test system: CAL-72;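 note: cell viability assay measuring inhibition of proliferation in the CAL-72 cell line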
# Description: SANGER: Inhibition of human CAL-72 cell growth in a cell viability assay.
# Ca9-22 = test system: Ca9-22;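 note: growth inhibition of Ca9-22 cells, read out with a cell viability assay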
# Description: SANGER: Inhibition of human Ca9-22 cell growth in a cell viability assay.
# NCI-H1573 = test system: NCI-H1573;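 note: growth inhibition of NCI-H1573 cells, read out with a cell viability assay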
# Description: SANGER: Inhibition of human NCI-H1573 cell growth in a cell viability assay.
# C3A = test system: C3A;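 note: growth inhibition of C3A human cells, quantified with a cell viability readout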
# Description: SANGER: Inhibition of human C3A cell growth in a cell viability assay.
# SJRH30 = test system: SJRH30;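 note: growth inhibition of human SJRH30 cells, read out with a cell viability assay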
# Description: SANGER: Inhibition of human SJRH30 cell growth in a cell viability assay.
# GAMG = test system: GAMG;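 note: cell growth inhibition measured by a viability assay in the GAMG human cell line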
# Description: SANGER: Inhibition of human GAMG cell growth in a cell viability assay.
# HCC1937 = test system: HCC1937;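 note: growth inhibition measured with a cell viability read-out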
# Description: SANGER: Inhibition of human HCC1937 cell growth in a cell viability assay.
# HTC-C3 = test system: HTC-C3;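 note: inhibition of cell growth, read out with a cell viability assay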
# Description: SANGER: Inhibition of human HTC-C3 cell growth in a cell viability assay.
smiles,measurement,setting,value
O=C(NCCCNc1nc(Nc2cccc(NC(=O)N3CCCC3)c2)ncc1I)c1cccs1 [BX-795],IC50,COLO-678,> 5000 nM
same,IC50,CHL-1,1920 nM
same,IC50,HGC-27,> 5000 nM
same,IC50,WM-115,3880 nM
same,IC50,HOS,1570 nM
same,IC50,DU-145,> 5000 nM
same,IC50,SK-MEL-24,> 5000 nM
same,IC50,SW1088,2000 nM
same,IC50,UMUC3,> 5000 nM
same,IC50,AN3-CA,1640 nM
same,IC50,NCI-H727,> 5000 nM
same,IC50,AGS,2560 nM
same,IC50,TCC-SUP,> 5000 nM
same,IC50,HCC38,> 5000 nM
same,IC50,SF-295,4.18 µM
same,IC50,HOP-92,1270 nM
same,IC50,HuO9,2560 nM
same,IC50,SiHa,> 5000 nM
same,IC50,HSC-3,1440 nM
same,IC50,UACC-62,> 5000 nM
same,IC50,SK-MEL-28,> 5000 nM
same,IC50,NCI-H1623,> 5000 nM
same,IC50,CAMA-1,> 5000 nM
same,IC50,OE19,> 5000 nM
same,IC50,MDA-MB-415,> 5000 nM
same,IC50,NY,> 5000 nM
same,IC50,SNU-423,3910 nM
same,IC50,BHY,> 5000 nM
same,IC50,NCI-H2122,> 5000 nM
same,IC50,SK-MEL-30,> 5000 nM
same,IC50,H4,1100 nM
same,IC50,SW948,> 5000 nM
same,IC50,SK-N-AS,> 5000 nM
same,IC50,NB12,> 5000 nM
same,IC50,ABC-1,4.81 µM
same,IC50,CAL-54,> 5000 nM
same,IC50,CAL-72,4220 nM
same,IC50,Ca9-22,2130 nM
same,IC50,NCI-H1573,> 5000 nM
same,IC50,C3A,> 5000 nM
same,IC50,SJRH30,> 5000 nM
same,IC50,GAMG,2830 nM
same,IC50,HCC1937,> 5000 nM
same,IC50,HTC-C3,> 5000 nM
O=C1NC(=O)c2c1c(-c1ccccc1Cl)cc1[nH]c3ccc(O)cc3c21,IC50,COLO-678,> 2000 nM
same,IC50,CHL-1,1050 nM
same,IC50,HGC-27,> 2000 nM
same,IC50,WM-115,> 2000 nM
same,IC50,HOS,> 2000 nM
same,IC50,DU-145,161 nM
same,IC50,SK-MEL-24,> 2000 nM
same,IC50,SW1088,> 2000 nM
same,IC50,UMUC3,> 2000 nM
same,IC50,AN3-CA,> 2000 nM
same,IC50,NCI-H727,> 2000 nM
same,IC50,AGS,> 2000 nM
same,IC50,TCC-SUP,> 2000 nM
same,IC50,HCC38,> 2000 nM
same,IC50,HOP-92,1000 nM
same,IC50,HuO9,1960 nM
same,IC50,SiHa,> 2000 nM
same,IC50,HSC-3,1180 nM
same,IC50,UACC-62,> 2000 nM
same,IC50,SK-MEL-28,> 2000 nM
same,IC50,NCI-H1623,> 2000 nM
same,IC50,CAMA-1,> 2000 nM
same,IC50,OE19,> 2000 nM
same,IC50,NY,> 2000 nM
same,IC50,SNU-423,> 2000 nM
same,IC50,BHY,1150 nM
same,IC50,NCI-H2122,> 2000 nM
same,IC50,SK-MEL-30,> 2000 nM
same,IC50,H4,953 nM
same,IC50,SW948,> 2000 nM
same,IC50,SK-N-AS,1810 nM
same,IC50,NB12,> 2000 nM
same,IC50,ABC-1,> 2 µM
same,IC50,CAL-54,> 2000 nM
same,IC50,CAL-72,1820 nM
same,IC50,Ca9-22,> 2000 nM
same,IC50,NCI-H1573,> 2000 nM
same,IC50,C3A,> 2000 nM
same,IC50,SJRH30,> 2000 nM
same,IC50,GAMG,> 2000 nM
same,IC50,HCC1937,> 2000 nM
same,IC50,HTC-C3,995 nM
CC1(C)CCC(c2ccc(Cl)cc2)=C(CN2CCN(c3ccc(C(=O)NS(=O)(=O)c4ccc(N[C@H](CCN5CCOCC5)CSc5ccccc5)c(S(=O)(=O)C(F)(F)F)c4)cc3)CC2)C1 [NAVITOCLAX],IC50,COLO-678,> 2000 nM
same,IC50,CHL-1,> 2000 nM
same,IC50,HGC-27,> 2000 nM
same,IC50,WM-115,277 nM
same,IC50,HOS,> 2000 nM
same,IC50,DU-145,899 nM
same,IC50,SK-MEL-24,> 2000 nM
same,IC50,SW1088,> 2000 nM
same,IC50,UMUC3,> 2000 nM
same,IC50,AN3-CA,> 2000 nM
same,IC50,NCI-H727,> 2000 nM
same,IC50,AGS,> 2000 nM
same,IC50,TCC-SUP,> 2000 nM
same,IC50,HCC38,802 nM
same,IC50,SF-295,> 2 µM
same,IC50,HOP-92,> 2000 nM
same,IC50,HuO9,267 nM
same,IC50,SiHa,> 2000 nM
same,IC50,HSC-3,1960 nM
same,IC50,UACC-62,> 2000 nM
same,IC50,SK-MEL-28,> 2000 nM
same,IC50,NCI-H1623,> 2000 nM
same,IC50,CAMA-1,> 2000 nM
same,IC50,OE19,> 2000 nM
same,IC50,MDA-MB-415,1390 nM
same,IC50,NY,> 2000 nM
same,IC50,SNU-423,1780 nM
same,IC50,BHY,> 2000 nM
same,IC50,NCI-H2122,> 2000 nM
same,IC50,SK-MEL-30,> 2000 nM
same,IC50,H4,> 2000 nM
same,IC50,SW948,> 2000 nM
same,IC50,SK-N-AS,> 2000 nM
same,IC50,NB12,231 nM
same,IC50,ABC-1,> 2 µM
same,IC50,CAL-54,> 2000 nM
same,IC50,CAL-72,> 2000 nM
same,IC50,Ca9-22,> 2000 nM
same,IC50,NCI-H1573,> 2000 nM
same,IC50,C3A,> 2000 nM
same,IC50,SJRH30,> 2000 nM
same,IC50,GAMG,> 2000 nM
same,IC50,HCC1937,> 2000 nM
same,IC50,HTC-C3,> 2000 nM
